Converted amounts (≈) assume the structure as drawn. The source made the active and inactive calls. No cut-off for these calls is given here.
Tests used:
Haemophilus influenzae = assay: Antibacterial activity against Haemophilus influenzae MSD2261 after 18 to 20 hrs by serial dilution method; type: functional
Escherichia coli = assay: Antibacterial activity against Escherichia coli MB2884 after 18 to 20 hrs by serial dilution method; type: functional
Candida albicans = assay: Antimicrobial activity against Candida albicans MY1055 after 18 to 20 hrs by serial dilution method; type: functional
Streptococcus pneumoniae = assay: Antibacterial activity against penicillin-susceptible Streptococcus pneumoniae CL2883 after 18 to 20 hrs by serial dilution method; type: functional
Enterococcus faecalis = assay: Antibacterial activity against vancomycin-susceptible Enterococcus faecalis CL8516 after 18 to 20 hrs by serial dilution method; type: functional
Staphylococcus aureus [1] = assay: Antibacterial activity against methicillin-susceptible Staphylococcus aureus MB2865 after 18 to 20 hrs by serial dilution method; type: functional
Staphylococcus aureus [2] = assay: Antibacterial activity against methicillin-resistant Staphylococcus aureus MB5393 containing COL plasmid after 18 to 20 hrs by serial dilution method; type: functional
Staphylococcus aureus [3] = assay: Antibacterial activity against Staphylococcus aureus EP167 after 18 to 20 hrs by serial dilution method; type: functional
Staphylococcus aureus [4] = assay: Inhibition of protein synthesis in Staphylococcus aureus EP167 after 30 mins by scintillation counter; type: functional, organism-based; conditions: 0.5 h
Staphylococcus aureus [5] = assay: Inhibition of RNA synthesis in Staphylococcus aureus EP167 after 30 mins by scintillation counter; type: functional, organism-based
Staphylococcus aureus [6] = assay: Inhibition of DNA synthesis in Staphylococcus aureus EP167 after 30 mins by scintillation counter; type: functional, organism-based
Staphylococcus aureus [7] = assay: Inhibition of peptidoglycan synthesis in Staphylococcus aureus EP167 after 30 mins by scintillation counter; type: functional, organism-based
Staphylococcus aureus [8] = assay: Inhibition of phospholipid synthesis in Staphylococcus aureus EP167 after 30 mins by scintillation counter; type: functional, organism-based
[9] = Aqueous solubility of the compound; type: physicochemical; conditions: water

Compound | MIC (Haemophilus influenzae) [µg/mL] | MIC (Escherichia coli) [µg/mL] | MIC (Candida albicans) [µg/mL] | MIC (Streptococcus pneumoniae) [µg/mL] | MIC (Enterococcus faecalis) [µg/mL] | MIC (Staphylococcus aureus [1]) [µg/mL] | MIC (Staphylococcus aureus [2]) [µg/mL] | MIC (Staphylococcus aureus [3]) [µg/mL] | IC50 (Staphylococcus aureus [4]) [µg/mL] | Activity (Staphylococcus aureus [5]) | Activity (Staphylococcus aureus [6]) | Activity (Staphylococcus aureus [7]) | Activity (Staphylococcus aureus [8]) | solubility [9] [µg/mL]
CC(=O)NC[C@H]1CN(c2ccc(N3CCOCC3)c(F)c2)C(=O)O1 [LINEZOLID] | > 32 | > 32 | > 32 |  |  |  |  |  |  |  |  |  |  | 
C=C(NC(=O)c1csc(-c2nc3c(cc2O)-c2nc(cs2)C(=O)N[C@@H]([C@@H](C)O)C(=O)N/C(=C(\C)OC)c2nc(cs2)C(=O)N[C@@H]2c4nc(cs4)C(=O)N[C@@H](COC(=O)c4c5c6c(cccc6n4O)COC(=O)[C@@H](O[C@H]4C[C@]6(C)OC(C)N(C)[C@@H]6[C@H](C)O4)[C@H]2OC5)c2nc-3cs2)n1)C(N)=O (some centres undefined) [THIAZOMYCIN A] | > 32 | > 32 | > 32 | 0.002 (≈ 0.00138 µM) | 0.25 (≈ 0.172 µM) | 0.06 (≈ 0.0414 µM) | 0.06 (≈ 0.0414 µM) | 0.004 (≈ 0.00276 µM) | 0.7 (≈ 0.483 µM) | inactive | inactive | inactive | inactive | < 100
C=C(NC(=O)c1csc(-c2nc3c(cc2O)-c2nc(cs2)C(=O)N[C@@H]([C@@H](C)O)C(=O)N/C(=C(\C)OC)c2nc(cs2)C(=O)N[C@@H]2c4nc(cs4)C(=O)N[C@@H](COC(=O)c4c5c6c(cccc6n4O)COC(=O)[C@@H](O[C@H]4C[C@]6(C)OCN(C)[C@@H]6[C@H](C)O4)[C@H]2OC5)c2nc-3cs2)n1)C(N)=O [THIAZOMYCIN] | > 32 | > 32 | > 32 | 0.004 (≈ 0.00279 µM) | 0.064 (≈ 0.0446 µM) | 0.016 (≈ 0.0111 µM) | 0.032 (≈ 0.0223 µM) |  |  |  |  |  |  | 
